According to publication PMC4977564, “Inhibition of Mycobacterium tuberculosis dihydrodipicolinate synthase by alpha-ketopimelic acid and its other structural analogues” (Scientific Reports, 2016):

Target: Mtb-rDapA (Mycobacterium tuberculosis, UniProt P9WP25)
Test: Fluorescence-based thermal shift assay
Assay type: binding
Conditions: ligand 0.2 mM to 1 mM; Mtb-rDapA Tm 84.8 °C
Description: The fluorescence based thermal shift assay for screening of identified ligands, which is based on the principle that ligand binding alters thermal stability of protein. This method allows us to monitor the protein denaturation upon heating using fluorescence based dye (Sypro orange, Sigma, USA), which binds to hydrophobic part of proteins during protein denaturation and emits fluorescence at 580 nm[43]. We can monitor the changes in fluorescence and generate a thermal melting curve using real time PCR. The mid-point of the melting curve designated as the melting temperature Tm corresponding to 50% of protein being denatured.
The thermal shift assay was carried out in the LightCycler^R LC480 qPCR machine using 384 well PCR plates (Roche, USA). An assay mixture of 20 μl contained 20 μM Mtb-rDapA, 15 X Sypro Orange (Sigma), 50 mM sodium phosphate buffer pH 7.4 and ligand in the range 0.2 mM to 1 mM. The ligands and Mtb-rDapA were diluted in sodium phosphate buffer. The PCR plates were sealed with optical seal, mixed well and centrifuged after the assay mixture was added. […] The fluorescence intensity was measured by excitation at 465 nm and emission at 580 nm. Curve fitting, melting temperature calculation and report generation on the raw Fluorescence based thermal shift assay (FTS) data were performed using pre-installed analysis software provided with the instrument (Roche, USA)[44].

Chain of Mtb-rDapA (P9WP25 whole entry, looked up): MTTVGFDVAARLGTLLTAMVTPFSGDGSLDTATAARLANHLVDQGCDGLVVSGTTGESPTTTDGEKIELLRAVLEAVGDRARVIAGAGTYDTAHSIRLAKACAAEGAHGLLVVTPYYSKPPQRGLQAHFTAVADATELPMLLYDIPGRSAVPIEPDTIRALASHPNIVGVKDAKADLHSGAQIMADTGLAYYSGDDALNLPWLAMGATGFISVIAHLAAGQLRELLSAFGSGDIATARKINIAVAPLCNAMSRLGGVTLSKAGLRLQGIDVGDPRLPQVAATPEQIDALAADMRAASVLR

For `CC(=O)C(=O)O` [pyruvate], the “Tm increase of Mtb-rDapA upon binding” value was 2 °C.

Target: T1, recombinant Mtb-DapA (Mtb-rDapA) (Mycobacterium tuberculosis, UniProt P9WP25)
Test: not given
Conditions: pyruvate 500 μM, ASA 400 μM; up to millimolar concentrations

T1 sequence (P9WP25 whole entry, looked up): as above

With `O=C(O)COc1ccccc1` [compound 9, 2-phenoxyacetic acid] the “Inhibition of Mtb-rDapA (in words)” value was “None of these showed inhibition”.
With `CCCC(=O)CC(=O)OC` [compound 7, Methyl 3-oxohexanoate] the “Inhibition of Mtb-rDapA (in words)” value was “did not show any inhibition”.
For `O=C(O)c1ccccc1` [compound 5, Benzoic acid], the “Inhibition of Mtb-rDapA (in words)” value was “None of these showed inhibition”.
With `Nc1ccc(C(=O)O)c(O)c1` [compound 8, 4-amino-2-hydroxy-benzoic acid] the “Inhibition of Mtb-rDapA (in words)” value was “None of these showed inhibition”.
With `Nc1ccc(C(=O)O)cc1` [p-amino benzoic acid] the “Inhibition of Mtb-rDapA (in words)” value was “None of these showed inhibition”.
With `CCCCc1ccc(C(=O)O)nc1` [compound 10, 5-butylpyridine-2-carboxylic acid] the “Inhibition of Mtb-rDapA (in words)” value was “None of these showed inhibition”.

Same assay, conditions: read-out: Michaelis constant, Km; substrate of Mtb-rDapA

Compound `N[C@@H](CC=O)C(=O)O` [ASA, L-aspartate-beta-semialdehyde] has a Km of 388 µM.

Test system: Escherichia coli DapA
Test: not given
Conditions: cited from earlier work

Point of comparison: `COC(=N)c1cccc(C(=N)OC)n1` [di-imidate of dimethyl pyridine-2,6-dicarboxylate], IC50 200 µM. Against it:
- O=C(O)c1cccc(C(=O)O)[n+]1[O-] [N-oxide of dipicolinic acid] — the same, 200 µM

Same assay, conditions: competitive inhibitors, structural analogues of pyruvate; cited from earlier work

Point of comparison: `CCC(=O)C(=O)O` [α-ketobutyrate], Ki 830 µM. Against it:
- O=CC(=O)O [glyoxylate] — 52-fold lower, 16 µM
- O=C(O)C(=O)CF [3-fluoropyruvate] — 3.8-fold lower, 220 µM
- CCCC(=O)C(=O)O [α-ketovalerate] — within 1.5-fold, 700 µM

Target: T1, recombinant Mtb-DapA (Mtb-rDapA)
Test: biochemical
Conditions: IC50, pyruvate 500 μM, ASA 400 μM

For `O=C(O)CCCCC(O)C(=O)O` (centres unmarked) [compound 11, hydroxyheptanedioic acid], the IC50 was 31 µM.

Same assay, conditions: read-out: Maximal Inhibition (%)

Point of comparison: `NC(=O)C(=O)c1ccc(C(=O)O)cc1` [compound 26, amino-oxoacetyl-benzoic acid], Emax 34%. Against it:
- CCOC(=O)CCCS(=O)(=O)CC(N)=O [compound 39, Ethyl 4-((2-amino-2-oxoethyl)sulfonyl)butanoate] — lower, 12%
- CCOC(=O)C(=O)CCCCC(=O)O [compound 20, Ethoxy-dioxoheptanoic acid] — higher, 35%
- CN(CCCC(N)=O)C(=O)C(=O)O [compound 14, amino-oxobutyl-methyl-amino-oxoacetic acid] — higher, 44%
- O=C(O)COc1ccccc1 [compound 9, 2-phenoxyacetic acid] — lower, 4%
- O=C(O)c1ccc(C(O)C(=O)O)cc1 (centres unmarked) [compound 23, Carboxy-hydroxy-methyl benzoic acid] — higher, 35%
- COC(=O)CCCN1C(=O)NC(=O)C1=O [compound 19, methyl-trioxoimidazolidin -butanoate] — higher, 38%
- CCOC(=O)CCC[S+]([O-])CC(N)=O (centres unmarked) [compound 28, Ethyl 4-((2-amino-2-oxoethyl)sulfinyl)butanoate] — lower, 31%
- CCCC(=O)CC(=O)OC [compound 7, Methyl 3-oxohexanoate] — lower, 5%
- O=C(O)CCCC(=O)C(=O)O [compound 2, 2-oxohexanedioic acid] — higher, 40%
- CN(CCCC(=O)O)C(=O)C(=O)O [compound 18, carboxy-methylformamido-butanoic acid] — higher, 39%
- NC(=O)c1ccc(C(=O)C(=O)O)cc1 [compound 37, 2-(4-Carbamoylphenyl)-2-oxoacetic acid] — lower, 15%
- O=C(O)c1ccccc1 [compound 5, Benzoic acid] — lower, 2%
- COC(=O)CCCCC(=O)C(N)=O [compound 32, methyl 7-amino-6,7-dioxoheptanoate] — lower, 24%
- O=C(O)CCCCCC(=O)O [compound 4, heptanedioic acid] — lower, 10%
- COC(=O)CCCCC(=O)c1nn[nH]n1 [compound 21, methyl-oxo-tetrazol-hexanoate] — higher, 35%
- O=C(O)C(=O)c1ccc(C(=O)O)cc1 [compound 33, carboxycarbonyl-benzoic acid] — lower, 22%
- NC(=O)CS(=O)(=O)CCCC(=O)O [compound 30, 4-((2-amino-2-oxoethyl)sulfonyl) butanoic acid] — lower, 29%
- Nc1ccc(C(=O)O)cc1 [compound 6, p-amino benzoic acid] — lower, 8%
- NC(=O)CSCCCC(=O)O [compound 38, 4-((2-Amino-2-oxoethyl)thio) butanoic acid] — lower, 15%
- CCOC(=O)C(=O)N(C)CCCC(N)=O [compound 25, Ethyl-amino-oxobutyl-methyl-amino-oxoacetate] — higher, 35%
- NC(=O)CCCCC(O)C(N)=O (centres unmarked) [compound 35, 2-Hydroxyheptanediamide] — lower, 21%
- Nc1ccc(C(=O)O)c(O)c1 [compound 8, 4-amino-2-hydroxy-benzoic acid] — lower, 4%
- CN(CCCC(N)=O)C(=O)C(N)=O [compound 17, amino-oxobutyl-methyloxalamide] — higher, 40%
- COC(=O)c1ccc(C(O)C(=O)O)cc1 (centres unmarked) [compound 24, Hydroxy-methoxycarbonyl pheny acetic acid] — higher, 35%
- O=C(O)CCCN1C(=O)NC(=O)C1=O [compound 36, 4-(2,4,5-Trioxoimidazolidin-1-yl) butanoic acid] — lower, 21%
- O=C(O)CCC(=O)C(=O)O [compound 3, 2-oxopentanedioic acid] — lower, 15%
- NC(=O)NC(=O)CCCC(=O)O [compound 16, oxo-ureidopentanoic acid] — higher, 40%
- COC(=O)CCCC(=O)NC(N)=O [compound 12, Methyl-oxo-ureidopentanoate] — higher, 65%
- COC(=O)CCCCC(O)C(N)=O (centres unmarked) [compound 31, Methyl 7-amino-6-hydroxy-7-oxoheptanoate] — lower, 28%
- O=C(O)CCCCC(O)C(=O)O (centres unmarked) [compound 11, hydroxyheptanedioic acid] — higher, 74%
- CCOC(=O)CCCCSC(N)=O [compound 27, ethyl-carbamoylthio-pentanoate] — the same, 34%
- COC(=O)c1ccc(C(=O)C(=O)O)cc1 [compound 29, methoxycarbonyl-phenyl-oxoacetic acid] — lower, 29%
- CCOC(=O)CCCSCC(N)=O [compound 34, Ethyl 4-((2-amino-2-oxoethyl)thio)butanoate] — lower, 21%
- CCCCc1ccc(C(=O)O)nc1 [compound 10, 5-butylpyridine-2-carboxylic acid] — lower, 5%
- CCOC(=O)C(=O)N(C)CCCC(=O)OC [compound 15, methyl-ethoxy-methyl-oxoacetamido-butanoate] — higher, 42%
- COC(=O)c1ccc(C(=O)C(N)=O)cc1 [compound 22, Methyl-amino-oxoacetyl benzoate] — higher, 35%
- NC(=O)SCCCCC(=O)O [compound 13, 5-(Carbamoylthio)pentanoic acid] — higher, 65%
